These are literature values, as cited in patent EP0420232B1, “Water soluble derivatives of glycoside bioflavonoids, processes for their preparation and related pharmaceutical compositions” (EUROPEAN PHARMACY Srl, priority 1989, dated 1991).

The conditions of data set [1]: background statement.
For data set [2] the following is noted: at room temperature; background statement.

Turning to `COc1ccc(-c2cc(=O)c3c(O)cc(O[C@@H]4O[C@H](CO[C@@H]5O[C@@H](C)[C@H](O)[C@@H](O)[C@H]5O)[C@@H](O)[C@H](O)[C@H]4O)cc3o2)cc1O` [diosmin, 7-ramnoglycoside of 5,7,3'-trihydroxy-4'-methoxyflavone], the toxicity entry in data set [1] was “devoid of toxicity”. As for `C[C@@H]1O[C@@H](OC[C@H]2O[C@@H](Oc3c(-c4ccc(O)c(O)c4)oc4cc(O)cc(O)c4c3=O)[C@H](O)[C@@H](O)[C@@H]2O)[C@H](O)[C@H](O)[C@H]1O` [rutin, 3-rutinoside of 3, 3', 4', 5,7-penthahydroxyflavone], the solubility in water result in data set [2] is given as “very poorly soluble”. Moreover, the toxicity result in data set [1] is reported as “devoid of toxicity”.
